This is an account of results in ChEMBL document CHEMBL5365395, “Optimization of a series of novel, potent and selective Macrocyclic SYK inhibitors” (Bioorg Med Chem Lett, 2023).

Series [1] can be described thus: Intrinsic clearance in rat hepatocytes assessed per million cells. Type of series: ADME, cell-based, Hepatocyte. The settings on record: read-out: CLH.
A short description of series [2]: Intrinsic Clearance in human liver microsome. Type of series: ADME. The settings on record: liver microsomes, read-out: CLH. Background: Microsomes from liver hold many membrane-bound enzymes, among them those of drug oxidation.
The nature of series [3]: Apparent permeability across apical to basolateral side in human Caco-2 cells at pH 6.5 after 45 to 120 mins by LC-MS/MS analysis. As to conditions: Caco-2, pH 6.5, time 45-120 min. Type of series: ADME, cell-based. (In general: Caco-2 cells form a polarised layer with tight junctions and transporters.)
In series [4] the target is Voltage-gated inwardly rectifying potassium channel KCNH2 (Homo sapiens, UniProt Q12809). As to the kind of experiment: Inhibition of human ERG by patch clamp assay. Type of series: toxicity. (The patch-clamp technique gives a direct electrical read-out from membranes.)
Voltage-gated inwardly rectifying potassium channel KCNH2, sequence (Q12809 whole entry): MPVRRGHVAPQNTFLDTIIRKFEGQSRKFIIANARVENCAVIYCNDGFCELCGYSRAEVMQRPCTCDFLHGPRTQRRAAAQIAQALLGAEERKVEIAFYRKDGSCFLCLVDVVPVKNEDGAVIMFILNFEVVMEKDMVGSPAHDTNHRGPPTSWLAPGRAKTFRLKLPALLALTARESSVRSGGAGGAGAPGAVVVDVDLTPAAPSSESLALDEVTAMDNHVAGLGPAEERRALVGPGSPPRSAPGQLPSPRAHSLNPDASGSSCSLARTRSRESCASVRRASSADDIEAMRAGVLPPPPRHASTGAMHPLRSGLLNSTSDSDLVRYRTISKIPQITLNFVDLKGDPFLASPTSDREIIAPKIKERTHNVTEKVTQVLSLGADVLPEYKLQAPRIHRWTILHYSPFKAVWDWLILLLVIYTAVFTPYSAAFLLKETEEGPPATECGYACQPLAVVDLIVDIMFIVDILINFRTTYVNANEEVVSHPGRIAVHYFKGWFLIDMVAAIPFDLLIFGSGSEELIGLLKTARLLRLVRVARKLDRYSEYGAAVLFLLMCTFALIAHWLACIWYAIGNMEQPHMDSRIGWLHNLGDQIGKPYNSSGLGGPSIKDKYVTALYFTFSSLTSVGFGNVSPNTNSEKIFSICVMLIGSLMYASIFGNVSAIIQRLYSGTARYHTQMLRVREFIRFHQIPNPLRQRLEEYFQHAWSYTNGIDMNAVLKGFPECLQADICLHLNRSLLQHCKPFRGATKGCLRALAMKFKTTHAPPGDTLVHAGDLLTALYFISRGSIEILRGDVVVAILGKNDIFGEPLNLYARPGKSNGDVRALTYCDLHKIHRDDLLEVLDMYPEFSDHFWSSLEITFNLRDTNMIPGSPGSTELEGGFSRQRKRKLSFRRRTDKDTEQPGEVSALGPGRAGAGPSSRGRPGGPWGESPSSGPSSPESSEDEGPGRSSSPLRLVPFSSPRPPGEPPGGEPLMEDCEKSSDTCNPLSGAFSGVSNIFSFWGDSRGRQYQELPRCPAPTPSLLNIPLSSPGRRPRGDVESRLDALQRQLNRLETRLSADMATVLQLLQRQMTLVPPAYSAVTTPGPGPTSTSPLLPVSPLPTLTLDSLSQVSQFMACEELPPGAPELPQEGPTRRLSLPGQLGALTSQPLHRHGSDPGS
Series [5] concerns SUD4. The series can be described thus: Cytotoxicity against human SU-DHL-4 cells assessed as reduction in cell viability.
Series [6] can be described thus: Lipophilicity, logD of the compound in buffer/octanol volume ratio of 100:1 at pH 7.4 by shake flask method. The format is physicochemical.
Series [7] can be described thus: Clearance in Han-Wistar rat at 1 umol/kg, iv. The settings on record: in vivo, dose 1 µmol/kg. Type of series: ADME.
Series [8] can be described thus: Oral bioavailability in Han-Wistar rat at 2 umol/kg. The settings on record: in vivo, at 2 µmol/kg. Type of series: ADME, organism-based.
A short description of series [9]: Volume of distribution at steady state in Han-Wistar rat at 1 umol/kg, iv. Type of series: ADME. The settings on record: in vivo, dose 1 µmol/kg, read-out: Vdss.
Series [10] in a line: Plasma protein binding in Han-Wistar rat assessed as fraction unbound. The format is ADME, cell-free.
Series [11] in a line: Intrinsic clearance in Han-Wistar rat hepatocytes. The format is ADME, cell-based, Hepatocyte.
Series [12] is described as follows: Clearance in Beagle Dog at 1 umol/kg, iv. The format is ADME, Canis lupus familiaris. As to conditions: in vivo, dose 1 µmol/kg.
A short description of series [13]: Volume of distribution at steady state in Beagle Dog at 1 umol/kg, iv. Type of series: ADME, Canis lupus familiaris. As to conditions: in vivo, dose 1 µmol/kg, read-out: Vdss.
A short description of series [14]: Oral bioavailability in Beagle Dog at 2 umol/kg. Type of series: ADME, organism-based, Canis lupus familiaris. As to conditions: in vivo, at 2 µmol/kg.
Series [15] can be described thus: Intrinsic clearance in Beagle Dog hepatocytes. The format is ADME, cell-based, Canis lupus familiaris, Hepatocyte.
A short description of series [16]: Hydrolytic stability of the compound at pH 1 assessed as half life. Type of series: physicochemical. As to conditions: buffer.
A short description of series [17]: Hydrolytic stability of the compound at pH 7.4 assessed as half life. As to conditions: buffer. Type of series: physicochemical.
A short description of series [18]: Hydrolytic stability of the compound at pH 10 assessed as half life. The settings on record: buffer. The format is physicochemical.
For series [19], the target named is Tyrosine-protein kinase SYK (Homo sapiens, UniProt P43405). As to the kind of experiment: Inhibition of full length recombinant human SYK.
Series [20] has as its target Mitogen-activated protein kinase kinase kinase 9 (Homo sapiens) (UniProt P80192). As to the kind of experiment: Inhibition of MAP3K9 (unknown origin) at 0.1 uM relative to control.

A value given as a limit tells only on which side of the number the result lay.

Mitogen-activated protein kinase kinase kinase 9 (Homo sapiens), sequence (P80192 whole entry, looked up): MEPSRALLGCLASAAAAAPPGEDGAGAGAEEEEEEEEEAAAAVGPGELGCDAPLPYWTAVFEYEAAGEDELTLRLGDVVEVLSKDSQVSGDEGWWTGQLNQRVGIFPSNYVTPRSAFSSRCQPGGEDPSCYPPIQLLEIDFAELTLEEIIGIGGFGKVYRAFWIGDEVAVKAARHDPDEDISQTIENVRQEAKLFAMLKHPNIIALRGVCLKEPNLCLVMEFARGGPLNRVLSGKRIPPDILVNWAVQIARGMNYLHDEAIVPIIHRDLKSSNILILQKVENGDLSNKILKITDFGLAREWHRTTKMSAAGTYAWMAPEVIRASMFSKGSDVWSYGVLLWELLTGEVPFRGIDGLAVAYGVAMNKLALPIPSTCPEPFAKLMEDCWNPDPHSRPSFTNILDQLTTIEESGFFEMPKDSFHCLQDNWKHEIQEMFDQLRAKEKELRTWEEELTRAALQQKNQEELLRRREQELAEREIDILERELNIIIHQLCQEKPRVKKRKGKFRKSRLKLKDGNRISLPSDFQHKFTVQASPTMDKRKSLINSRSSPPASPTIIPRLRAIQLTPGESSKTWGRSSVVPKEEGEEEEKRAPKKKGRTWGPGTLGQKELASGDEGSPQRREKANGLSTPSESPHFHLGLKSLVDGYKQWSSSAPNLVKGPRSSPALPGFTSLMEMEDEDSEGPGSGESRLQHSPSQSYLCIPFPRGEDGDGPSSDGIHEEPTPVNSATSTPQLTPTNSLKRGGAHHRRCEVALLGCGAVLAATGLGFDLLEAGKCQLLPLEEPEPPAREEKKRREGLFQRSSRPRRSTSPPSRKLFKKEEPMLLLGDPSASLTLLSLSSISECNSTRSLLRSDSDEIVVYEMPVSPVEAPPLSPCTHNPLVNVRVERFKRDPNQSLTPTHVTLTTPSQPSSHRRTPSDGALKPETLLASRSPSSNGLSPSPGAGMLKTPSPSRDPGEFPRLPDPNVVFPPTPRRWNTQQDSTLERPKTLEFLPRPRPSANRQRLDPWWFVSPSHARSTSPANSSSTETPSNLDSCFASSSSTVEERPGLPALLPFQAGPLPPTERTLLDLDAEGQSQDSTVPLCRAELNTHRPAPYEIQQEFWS

For orientation: Papp A→B means how fast a substance crosses the layer from the apical side. What is called IC50 is the midpoint of a concentration-inhibition curve. Broadly, the logD is the decadic logarithm of the distribution of all forms, ionised or not, between an organic phase and buffer at a given pH. For orientation: clearance means a measure of how efficiently the substance is removed, as volume per time. A word on the bioavailability: it is the share of a dose that reaches the circulation, judged against a reference dose that is usually intravenous. High values mean good availability, low ones poor availability. Regarding `Cc1nn2cc1CN(C)CCOCCNC(=O)c1nn(CCO)c3ccc(cc13)Nc1nccc-2n1`, in series [1], the hepatocyte CLint was below 1.6 µL/min/1e6 cells. For the same compound, the microsomal CLint in series [2] was found to be 23 µL/min/mg. Also, the Papp A→B in series [3] amounted to 1.12 ×10⁻⁶ cm/s. The IC50 in series [4] is above 39000 nM; in series [5], 280 nM. In addition, the log distribution coefficient (logD) in series [6] was 1.2. Also, the clearance in [7] was 33 mL/min/kg; in series [12], 9 mL/min/kg. The bioavailability in series [8] turned out to be 0.9%; in series [14] it was 0.38%. Further, the Vd in [9] was 2.1 L/kg; in series [13], 1.9 L/kg. Besides, in series [10], the Fu stood at 16%. For the same compound, the CLH in series [11] is below 1.5 µL/min/1e6 cells; in series [15], below 1 µL/min/1e6 cells.
For the compound `Cc1nn2cc1CN(C)CCOCCNC(=O)c1nn(C[C@@H](C)O)c3ccc(cc13)Nc1nccc-2n1`, the hepatocyte CLint in series [1] worked out at 4.4 µL/min/1e6 cells. Moreover, in [2], the microsomal CLint is 39 µL/min/mg. Moreover, the IC50 in series [4] was 22000 nM; in series [5], 260 nM. The pH-dependent lipophilicity (logD) in series [6] is 1.4.
Usually half-life stands for the time in which the quantity being followed falls by half. In the case of `CC(=O)OC(C)(C)Cn1nc2c3cc(ccc31)Nc1nccc(n1)-n1cc(c(C)n1)CN(C)CCOCCNC2=O`, the hepatocyte CLint in series [1] was 63 µL/min/1e6 cells. For the same compound, the microsomal CLint in series [2] amounted to 229 µL/min/mg. For the same compound, in series [3], the apical-to-basolateral permeability (Papp A→B) worked out at 13 ×10⁻⁶ cm/s. For the same compound, the IC50 in series [4] stood at 1200 nM; in [5] it was 850 nM. Besides, in [6], the logD came to 2.5. Moreover, the results for the half-life in series [16], in [17] and in series [18] were 6.5 h, 72 h and 2.9 h, respectively.
As to `CNC(=O)c1nn(C)c2ccc(Nc3nccc(-n4cc(CN(C)C)c(C)n4)n3)cc12`, the 50% inhibitory concentration (IC50) in [5] worked out at 240 nM.
`Cc1nn2cc1CN(C)CCOCCNC(=O)c1nn(CC(C)(C)O)c3ccc(cc13)Nc1nccc-2n1`: the hepatocyte CLint in series [1] worked out at 3.4 µL/min/1e6 cells. In addition, the microsomal CLint in [2] came to 52 µL/min/mg. The IC50 was 8000 nM in [4] and 480 nM in series [5]. Further, the logD in [6] was found to be 1.6.
Regarding `Cc1nn2cc1CN(C)N1CCC(CCNC(=O)c3nn(C)c4ccc(cc34)Nc3nccc-2n3)CC1`, the hepatocyte CLint in [1] turned out to be 15 µL/min/1e6 cells. In series [2], the microsomal CLint amounted to 76 µL/min/mg. The half-inhibitory concentration (IC50) in series [5] turned out to be 350 nM. The logD in series [6] was determined as 2.3.
In the case of `Cc1nn2cc1CN(C)N1CC(CNC(=O)c3nn(C)c4ccc(cc34)Nc3nccc-2n3)C1`, the hepatocyte CLint in [1] came to 27 µL/min/1e6 cells. Besides, in [2], the microsomal CLint amounted to 18 µL/min/mg. Also, in series [5], the half-inhibitory concentration (IC50) was 1200 nM. In addition, the logD in series [6] came to 1.2.
`Cc1nn2cc1CN(C)CCOCCNC(=O)c1nn(C[C@H](C)O)c3ccc(cc13)Nc1nccc-2n1`: the hepatocyte CLint in series [1] was 6.5 µL/min/1e6 cells. Besides, the microsomal CLint in series [2] came to 34 µL/min/mg. The half-inhibitory concentration (IC50) in [4] was above 22000 nM; in series [5] it was 390 nM. Besides, the pH-dependent lipophilicity (logD) in [6] came out at 1.3.
For orientation: inhibition means the percentage by which the read-out fell short of the control. A low value points to a weak effect. As to `Cc1nn2cc1CN(C)CCOCCNC(=O)c1nn(C)c3ccc(cc13)Nc1nccc-2n1`, the half-inhibitory concentration (IC50) amounted to 0.13 nM in series [19], 850 nM in series [4] and 570 nM in [5]. In addition, in series [1], the hepatocyte CLint amounted to 8.1 µL/min/1e6 cells. For the same compound, the microsomal CLint in series [2] was 25 µL/min/mg. In [3], the apical-to-basolateral permeability (Papp A→B) turned out to be 19 ×10⁻⁶ cm/s. The log distribution coefficient (logD) in series [6] is 1.8. Moreover, the clearance in [7] worked out at 16 mL/min/kg. Besides, the bioavailability in series [8] is 64%. Further, the Vd in series [9] came out at 1.9 L/kg. The Fu in series [10] worked out at 7%. In series [11], the CLH worked out at 8.1 µL/min/1e6 cells. The inhibition in [20] is above 70%.
Consider `Cc1nn2cc1CN(C)CCCCCNC(=O)c1nn(C)c3ccc(cc13)Nc1nccc-2n1`, for which the hepatocyte CLint in series [1] was 12 µL/min/1e6 cells. In series [2], the microsomal CLint came out at 44 µL/min/mg. Further, the concentration for half-maximal inhibition (IC50) in series [5] worked out at 2200 nM. In addition, in series [6], the pH-dependent lipophilicity (logD) amounted to 2.7.
For `Cc1nn2cc1CN(C)N1CCC(O)(CCNC(=O)c3nn(C)c4ccc(cc34)Nc3nccc-2n3)CC1`, in [1], the hepatocyte CLint is 2.1 µL/min/1e6 cells. Also, in series [2], the microsomal CLint stood at 28 µL/min/mg. The Papp A→B in series [3] was determined as 1.9 ×10⁻⁶ cm/s. Besides, the IC50 in [4] is 8800 nM; in series [5] it was 100 nM. Moreover, in series [6], the logD was determined as 1.6.
`Cc1nn2cc1CN(C)CCOCCNC(=O)c1nn(C3COC3)c3ccc(cc13)Nc1nccc-2n1`: in [1], the hepatocyte CLint is 4.6 µL/min/1e6 cells. Further, in series [2], the microsomal CLint is 28 µL/min/mg. Moreover, in series [3], the Papp A→B turned out to be 3.7 ×10⁻⁶ cm/s. Moreover, the results for the concentration for half-maximal inhibition (IC50) in [4] and in series [5] were 3700 nM and 550 nM, respectively. In addition, the logD in series [6] was 1.7.
As to `Cc1nn2cc1CN(C)CCOCCNC(=O)c1nn(CCOC(=O)C(C)(C)C)c3ccc(cc13)Nc1nccc-2n1`, the hepatocyte CLint in series [1] came out at 163 µL/min/1e6 cells. For the same compound, the microsomal CLint in [2] was above 300 µL/min/mg. Moreover, in [3], the Papp A→B was determined as 8 ×10⁻⁶ cm/s. The results for the concentration for half-maximal inhibition (IC50) in series [4] and in series [5] were 1100 nM and 1000 nM, respectively. Also, the logD in series [6] is 3.1. Also, the figures for the half-life in [16], in [17] and in series [18] were above 100 h, 30 h and 5 h, respectively.
On to `CC(=O)OCCn1nc2c3cc(ccc31)Nc1nccc(n1)-n1cc(c(C)n1)CN(C)CCOCCNC2=O`, for which, in series [1], the hepatocyte CLint stood at 198 µL/min/1e6 cells. Further, the microsomal CLint in series [2] was above 300 µL/min/mg. Besides, the Papp A→B in series [3] came out at 3.6 ×10⁻⁶ cm/s. For the same compound, the half-inhibitory concentration (IC50) in series [4] came to 2100 nM; in [5], 990 nM. In [6], the logD turned out to be 1.9. Also, the half-life was 0.7 h in [16], 6.8 h in [17] and below 0.5 h in series [18].
